Where two headings read alike, the source gives them in different places.
Assays:
[1] = biological target: RORγ ligand binding domain (LBD) (Homo sapiens (Human), UniProt P51449); assay: TR-FRET Activity Assay (ligand sensing assay, LANCE); settings: for pIC50 (FRET): TR-FRET, interaction of RORγ-LBD with coactivator peptide
RORγ = RORγ (Homo sapiens, UniProt P51449); assay: RORγ Gal4 Reporter Gene Assay; type: cell-based; settings: for IC50: 293T cells
Experimental: Determination of a ligand mediated Gal4 promoter driven transactivation to quantify ligand binding to RORγ was performed as follows: DNA encoding three different RORγ protein fragments was cloned into vector pCMV-BD (Stratagene). Expression was under control of a CMV promoter and as fusion to the DNA-binding domain of the yeast protein GAL4. Other vectors used were pFR-Luc (Stratagene) as regulated reporter plasmid. pFR-Luc contains a synthetic promoter with five tandem repeats of the yeast GAL4 binding sites that control expression of the Photinus pyralis (American firefly) luciferase gene. In order to improve experimental accuracy the plasmid pRL-CMV was cotransfected. pRL-CMV contains the constitutive CMV promoter, controlling the expression of the Renilla reniformis luciferase.
The medium is supplemented with 10% fetal bovine serum, 0.1 mM nonessential amino acids, 1 mM sodium pyruvate, 1% Glutamax and 100 units Penicilin/[…] per mL at 37° C. in 5% CO2.
For the assay, […] were plated per well in 96 well plates in 100 μL per well, incubated over night at 37° C. in 5% CO2. […] About 4 h after addition of the transfection solution, fresh Minimal Essential Medium (MEM, same composition as used for plating cells, but without serum) was added. Then compound stocks, prediluted in MEM (same composition as used for plating cells) were added (final vehicle concentration not exceeding 0.1%).
All experiments were done at least in triplicates.

[2] = firefly (FF) luciferase, read-out: pIC50 (FF) (converted)
[3] = renilla normalised (RENnorm) luciferase, read-out: pIC50 (REN) (converted)

Sequence of RORγ ligand binding domain (LBD) (P51449 269-508): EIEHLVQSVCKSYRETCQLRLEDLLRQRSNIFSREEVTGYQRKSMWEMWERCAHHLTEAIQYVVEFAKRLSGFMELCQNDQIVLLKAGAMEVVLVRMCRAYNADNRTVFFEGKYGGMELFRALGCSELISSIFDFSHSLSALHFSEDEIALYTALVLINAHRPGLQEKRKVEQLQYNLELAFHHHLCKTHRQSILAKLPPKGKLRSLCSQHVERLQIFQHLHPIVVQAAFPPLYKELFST
Sequence of RORγ (P51449 whole entry, looked up, the tested form may be a part): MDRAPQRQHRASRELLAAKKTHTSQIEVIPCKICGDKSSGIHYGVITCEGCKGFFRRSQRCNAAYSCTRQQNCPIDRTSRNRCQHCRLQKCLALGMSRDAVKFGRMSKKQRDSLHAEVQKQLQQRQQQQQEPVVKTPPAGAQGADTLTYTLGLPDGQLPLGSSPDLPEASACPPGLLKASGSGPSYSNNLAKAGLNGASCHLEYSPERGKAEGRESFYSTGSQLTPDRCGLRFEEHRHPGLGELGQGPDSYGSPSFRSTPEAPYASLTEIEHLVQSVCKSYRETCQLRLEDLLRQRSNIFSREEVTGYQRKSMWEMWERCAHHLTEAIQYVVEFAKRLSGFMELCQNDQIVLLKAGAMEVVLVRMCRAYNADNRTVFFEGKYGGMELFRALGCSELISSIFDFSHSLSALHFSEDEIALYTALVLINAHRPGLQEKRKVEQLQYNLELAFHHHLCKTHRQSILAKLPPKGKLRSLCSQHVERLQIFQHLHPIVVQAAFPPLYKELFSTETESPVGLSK

Structure (SMILES) | pIC50 (FRET) [1] | pIC50 (FF) (RORγ) | pIC50 (REN) (RORγ) | IC50 [1] | IC50 (RORγ; [2]) | IC50 (RORγ; [3])
Cc1c(C(=O)NC(C)(C)C)cc(-c2sc(C(=O)N[C@H]3C[C@H](C(=O)O)C3)nc2CC2CCCCC2)cc1C1(C)CC1 [19/7] | 5.8/6.8/6.8 | 5.8/6.8/6.8 | 5.8/6.8/6.8 |  |  | 
CC(C)(C)NS(=O)(=O)c1ccc(-c2sc(C(=O)NC3CCS(=O)(=O)CC3)nc2CC2CCCCC2)c2ccncc12 [21/13] | 6.3/7.9/7.9 | 6.3/7.9/7.9 | 6.3/7.9/7.9 |  |  | 
CC(C)(C)NS(=O)(=O)c1ccc(-c2oc(C(=O)NC3CCS(=O)(=O)CC3)nc2CC2CCC2)c2ccccc12 [Example 104, 5-(4-(N-(tert-Butyl)sulfamoyl)naphthalen-1-yl)-4-(cyclobutylmethyl)-N-(1,1-dioxidotetrahydro-2H-thiopyran-4-yl)oxazole-2-carboxamide] | 6.6/7.5/7.9 | 6.6/7.5/7.9 | 6.6/7.5/7.9 |  |  | 
CC(C)(C)c1cc(-c2sc(C(=O)N[C@H]3C[C@H](C(=O)O)C3)nc2CC2CCCCC2)cc(C(C)(C)C)[n+]1[O-] [8/9] |  |  |  | 794 nM | 126 nM | 126 nM
CC(C)(C)c1cc(-c2nc(C(N)=O)ncc2CC2CCCCC2)cc(C(C)(C)C)c1 [Example 206, 5-(Cyclohexylmethyl)-4-(3,5-di-tert-butylphenyl)pyrimidine-2-carboxamide] | 5.9/6.3/6.2 | 5.9/6.3/6.2 | 5.9/6.3/6.2 |  |  | 
COC(c1nc(C(=O)N[C@H]2C[C@H](C(=O)O)C2)sc1-c1ccc(S(=O)(=O)NC(C)(C)C)c(C(C)(C)C)c1)C1CCCCC1 (stereo partly drawn) [Example 19, trans-3-(5-(3-(tert-Butyl)-4-(N-(tert-butyl)sulfamoyl)phenyl)-4-(cyclohexyl(methoxy)methyl)thiazole-2-carboxamido)cyclobutanecarboxylic acid] | 5.4/6.4/6.6 | 5.4/6.4/6.6 | 5.4/6.4/6.6 |  |  | 
CC(C)(C)NS(=O)(=O)c1ccc(-c2oc(C(=O)NC3CCS(=O)(=O)CC3)nc2CC2CCCCC2)c(Cl)c1Cl [100/16] | 6.6/8.4/8.2 | 6.6/8.4/8.2 | 6.6/8.4/8.2 |  |  | 
CC(C)(C)NS(=O)(=O)c1ccc(-c2sc(C(=O)NC3CC3)nc2CC2CCCCC2)c(Cl)c1Cl [6/31] | 7.3/8.0/8.0 | 7.3/8.0/8.0 | 7.3/8.0/8.0 |  |  | 
CC(C)(C)NS(=O)(=O)c1ccc(-c2oc(C(=O)NC34CCC(C(=O)O)(CC3)CC4)nc2CC2CCCCC2)c2ccccc12 [100/14] | 5.8/7.9/7.9 | 5.8/7.9/7.9 | 5.8/7.9/7.9 |  |  | 
CC(C)(C)NS(=O)(=O)c1ccc(-c2sc(C(=O)NC3CCC(C(=O)O)C3)nc2CC2CCCCC2)c2ccccc12 (stereo not drawn) [6/51] | 6.3/8.4/8.4 | 6.3/8.4/8.4 | 6.3/8.4/8.4 |  |  | 
CC(C)(O)CC(=O)Nc1nc(CC2CCCCC2)c(-c2ccc(S(=O)(=O)NC(C)(C)C)c(C(F)(F)F)c2)s1 [Example 200, N-(5-(4-(N-(tert-Butyl)sulfamoyl)-3-(trifluoromethyl)phenyl)-4-(cyclohexylmethyl)thiazol-2-yl)-3-hydroxy-3-methylbutanamide] | 6.6/7.5/7.8 | 6.6/7.5/7.8 | 6.6/7.5/7.8 |  |  | 
CC1CC(C)CN(C(=O)c2nc(C(=O)NCC(C)(C)O)sc2-c2ccc(S(=O)(=O)NC(C)(C)C)c3ccccc23)C1 (stereo not drawn) [304/8] | 6.0/6.9/6.9 | 6.0/6.9/6.9 | 6.0/6.9/6.9 |  |  | 
COc1ccc(-c2sc(C(=O)N[C@H]3C[C@H](C(=O)O)C3)nc2CC2CCCCC2)c2ccccc12 [7/20] |  |  |  | > 20000 nM | 251 nM | 251 nM
CC(C)(C)NS(=O)(=O)c1ccc(-c2nc(C(=O)NC34CCC(C(=O)O)(CC3)CC4)oc2CC2CCCCC2)c2ccccc12 [Example 103/1] | 6.2/7.4/7.4 | 6.2/7.4/7.4 | 6.2/7.4/7.4 |  |  | 
COC(C)(C)c1cc(-c2sc(C(=O)N[C@H]3C[C@H](C(=O)O)C3)nc2CC2CCCCC2)cc(C2(C)CC2)c1 [9/5] | 6.7/7.8/7.9 | 6.7/7.8/7.9 | 6.7/7.8/7.9 |  |  | 
CC(C)(C)NS(=O)(=O)c1ccc(-c2oc(C(=O)N[C@H]3C[C@H](C(=O)O)C3)nc2CC2CCCCC2)cc1C(C)(C)C [100/2] | 5.5/6.4/6.3 | 5.5/6.4/6.3 | 5.5/6.4/6.3 |  |  | 
COC(c1nc(C(=O)NC2CCOCC2)sc1-c1cc(C(C)(C)C)cc(C2(C)CC2)c1)C1CCCCC1 (stereo not drawn) [19/3] | 6.8/7.1/7.1 | 6.8/7.1/7.1 | 6.8/7.1/7.1 |  |  | 
CC(C)(C)NS(=O)(=O)c1ccc(-c2sc(C(=O)N[C@H]3C[C@H](C(=O)O)C3)nc2CC2CCCCC2)c2c(F)cccc12 [19/9] | 6.3/7.0/7.1 | 6.3/7.0/7.1 | 6.3/7.0/7.1 |  |  | 
CCC1CCN(C(=O)c2nc(C(=O)NCC(C)(C)O)sc2-c2ccc(S(=O)(=O)NC(C)(C)C)c3ccccc23)CC1 [304/10] |  | nt/7.5/7.5 | nt/7.5/7.5 |  |  | 
C[C@H](NS(=O)(=O)c1ccc(-c2sc(C(=O)NCC(C)(C)O)nc2CC2CCC2)c(Cl)c1)C(F)(F)F [21/19] |  | nt/7.9/7.9 | nt/7.9/7.9 |  |  | 

Structure (SMILES) | pIC50 (FRET) [1] | pIC50 (FF) (RORγ) | pIC50 (REN) (RORγ) | IC50 [1] | IC50 (RORγ; [2]) | IC50 (RORγ; [3])
C[C@H](NS(=O)(=O)c1ccc(-c2sc(C(=O)NCC(C)(C)O)nc2CC2CCC(F)(F)CC2)c2ccccc12)C(F)(F)F [21/23] |  | nt/8.7/8.6 | nt/8.7/8.6 |  |  | 
C[C@H](NS(=O)(=O)c1ccc(-c2sc(C(=O)NC3CCS(=O)(=O)CC3)nc2CC2CCCC2)c(Cl)c1Cl)C(F)(F)F [8/12] |  |  |  |  | 1.26 nM | 1.26 nM
CCCc1nc(C(=O)NCC(C)(C)O)sc1-c1ccc(S(=O)(=O)N[C@@H](C)C(F)(F)F)c2ccccc12 [300/9] |  | nt/7.9/7.9 | nt/7.9/7.9 |  |  | 
CCCc1nc(C(=O)N[C@H]2C[C@H](C(=O)O)C2)sc1-c1ccc(S(=O)(=O)NC(C)(C)C)c2ccccc12 [300/8] |  |  |  |  | 79.4 nM | 63.1 nM
CC(C)(C)NS(=O)(=O)c1ccc(-c2sc(C(=O)N3CCC(S(C)(=O)=O)CC3)nc2CC2CCCCC2)c2ccccc12 [6/56] |  | nt/8.1/8.2 | nt/8.1/8.2 |  |  | 
CC(C)(C)NS(=O)(=O)c1ccc(-c2sc(C(=O)NC3CCS(=O)(=O)CC3)nc2-c2cccc(Cl)c2)c2ccccc12 [300/14] |  | nt/8.2/8.2 | nt/8.2/8.2 |  |  | 
CC(C)(C)NS(=O)(=O)c1ccc(-c2sc(C(=O)NCC(C)(C)c3nn[nH]n3)nc2CC2CCCCC2)c2ccccc12 [6/59] |  | nt/7.6/7.8 | nt/7.6/7.8 |  |  | 
CCC(C)(C)NS(=O)(=O)c1ccc(-c2sc(C(=O)NCC(C)(C)O)nc2C(=O)N2CCC(C)CC2)c2ccccc12 [304/13] |  | nt/7.6/7.7 | nt/7.6/7.7 |  |  | 
CN(C(=O)c1nc(CC2CCCCC2)c(-c2cc(C(C)(C)C)cc(C3(C)CC3)c2)s1)C1CCOCC1 [6/52] |  | nt/6.9/6.9 | nt/6.9/6.9 |  |  | 
CCC(C)(C)NS(=O)(=O)c1ccc(-c2sc(C(=O)N3CC4(C3)CS(=O)(=O)C4)nc2C(=O)N2CCC(C)CC2)c(Cl)c1C [301/2] |  | nt/7.7/7.8 | nt/7.7/7.8 |  |  | 
CC1CCN(C(=O)c2nc(C(=O)NCC(C)(C)O)sc2-c2ccc(S(=O)(=O)N3CCCCC3(C)C)c3ccccc23)CC1 [304/25] |  | nt/8.0/7.6 | nt/8.0/7.6 |  |  | 
CC(C)(O)CNC(=O)c1nc(CC2CCC2)c(-c2ccc(S(=O)(=O)NC(C)(C)C)cc2OC(F)(F)F)s1 [21/24] |  | nt/7.5/7.6 | nt/7.5/7.6 |  |  | 
CC(C)(C)c1cc(-c2nc(C(=O)N[C@H]3C[C@H](C(=O)O)C3)oc2CC2CCCCC2)cc(C2(C)CC2)c1 [103/2] |  |  |  |  | 398 nM | 251 nM
CC1CCN(C(=O)c2nc(C(=O)NCC(C)(C)O)sc2-c2ccc(S(=O)(=O)N[C@@H](C)C(F)(F)F)c3ccccc23)CC1 [304/12] |  | nt/7.7/7.7 | nt/7.7/7.7 |  |  | 
CC(C)(C)NS(=O)(=O)c1ccc(-c2sc(C(=O)N[C@H]3C[C@H](C(=O)O)C3)nc2CC2CCCCC2)c(OC(F)(F)F)c1 [21/7] |  |  |  |  | 10 nM | 6.31 nM
CC(C)(C)NS(=O)(=O)c1ccc(-c2sc(C(=O)N3CCS(=O)(=O)CC3)nc2CC2CCCCC2)c2ccccc12 [6/55] |  | nt/8.0/8.2 | nt/8.0/8.2 |  |  | 
Cc1c(-c2sc(C(=O)NC3CCS(=O)(=O)CC3)nc2CC2CCCCC2)cc(Cl)c(S(N)(=O)=O)c1Cl [17/2] |  | nt/5.7/5.9 | nt/5.7/5.9 |  |  | 
CC(C)(C)NS(=O)(=O)c1ccc(-c2oc(C(=O)NCCC(C)(C)C(=O)O)nc2CC2CCCCC2)c2ccccc12 [100/21] |  | nt/7.2/7.1 | nt/7.2/7.1 |  |  | 
CC(C)(C)NS(=O)(=O)c1ccc(-c2sc(C(=O)NC3CCS(=O)(=O)CC3)nc2CC2CCC2)c2ccccc12 [21/16] |  | nt/8.4/8.4 | nt/8.4/8.4 |  |  | 
